Source: patent publication US10647675B2 (priority 2015, dated 2020)
In brackets after ≈: the same amount, converted by molar mass.

Columns and labels:
[1] = tested on: Trichophyton mentagrophytes SM-110; test: Antifungal activity evaluation test: minimum inhibitory concentration (MIC), broth dilution by reference to CLSI M38-A2; format: cell-based; settings: SM110, read-out: MIC (T. menta.)
Experimental: (§1) The minimum inhibitory concentration (MIC) for Trichophyton mentagrophytes and Trichophyton rubrum was measured by the following procedure by reference to Clinical and Laboratory standards Institute (CLSI) guidelines M38-A2. Reference document for the measurement method: National Committee for a Clinical Laboratory Standards. Reference method for broth dilution antifungal susceptibility testing of filamentous fungi. Approved standard Second edition M38-A2. Wayne, Pa.: National Committee for a Clinical Laboratory Standards, 2008. • Test compound solution: A test compound was dissolved in dimethyl sulfoxide (DMSO) at a concentration of 2.5 mg/mL to give a stock solution. The stock solution was appropriately diluted with DMSO to prepare a 2-fold dilution series. As control compounds, terbinafine and amorolfine were used. • Test strains: Trichophyton mentagrophytes SM-110 and Trichophyton rubrum KD-1130 were used. • Preparation of fungal culture to be inoculated: The above-mentioned test strain was suspended in 0.05% Tween 80-containing saline, and the fungi of the genus Trichophyton were prepared to a fungal concentration of 1×10^6 cells/mL by using a hemocytometer. Then, using MOPS-buffered RPMI 1640 medium (pH 7.0) as a test medium, a fungal culture of the fungi of the genus Trichophyton was diluted 250-fold (4×10^3 cells/mL) to give a fungal culture for inoculation. • MIC measurement of genus Trichophyton fungi: MOPS-buffered RPMI 1640 medium (pH 7.0) was dispensed by 100 μL to given wells of a 96 well U-bottom microplate. Then, the test compound solution (2 μL) was added, the mixture was sufficiently stirred by a plate mixer. The fungal culture (100 μL) was inoculated and the mixture was cultured at 35° C. for 4 days (final fungal concentration: 2×10^3 cells/mL). After the culture, the minimum drug concentration of a well in which a growth inhibitory action of not less than 80% was visually observed as compared to a growth control was taken as a minimum inhibitory concentration (MIC: μg/mL).
(§2) The abbreviations in the Tables mean the following fungi and compounds. • T. menta.: Trichophyton mentagrophytes • T. rubrum: Trichophyton rubrum • TBF: terbinafine • AMF: amorolfine

[2] = tested on: Trichophyton rubrum KD-1130; test: as above; format: cell-based; settings: KD1130, read-out: MIC (T. rubrum)
Experimental: as §1, §2

Compound	MIC [1] [µg/mL]	MIC [2] [µg/mL]
COc1ccccc1-c1cccnc1Oc1ccc(C(F)(F)F)nc1 [I-1, 3-(2-methoxyphenyl)-2-{[6-(trifluoromethyl)pyridin-3-yl]oxy}pyridine]	≤ 0.1	≤ 0.1
Fc1cccc(F)c1-c1cccnc1Oc1ccc(C(F)(F)F)nc1 [I-6, 3-(2,6-difluorophenyl)-2-{[6-(trifluoromethyl)pyridin-3-yl]oxy}pyridine]	≤ 0.1	≤ 0.1
Fc1ccc(-c2cccnc2Oc2ccc(C(F)(F)F)nc2)c(F)c1 [I-8, 3-(2,4-difluorophenyl)-2-{[6-(trifluoromethyl)pyridin-3-yl]oxy}pyridine]	≤ 0.1	≤ 0.1
Fc1cccc(-c2cccnc2Oc2ccc(C(F)(F)F)nc2)c1F [I-9, 3-(2,3-difluorophenyl)-2-{[6-(trifluoromethyl)pyridin-3-yl]oxy}pyridine]	0.2 to 0.78 (≈ 0.568 to 2.21 µM)	≤ 0.1
COc1cc(F)ccc1-c1cccnc1Oc1ccc(C(F)(F)F)nc1 [I-12, 3-(4-fluoro-2-methoxyphenyl)-2-{[6-(trifluoromethyl)pyridin-3-yl]oxy}pyridine]	≤ 0.1	≤ 0.1
O=[N+]([O-])c1ccccc1-c1cccnc1Oc1ccc(C(F)(F)F)nc1 [I-15, 3-(2-nitrophenyl)-2-{[6-(trifluoromethyl)pyridin-3-yl]oxy}pyridine]	0.2 to 0.78 (≈ 0.554 to 2.16 µM)	0.2 to 0.78 (≈ 0.554 to 2.16 µM)
CCc1ccccc1-c1cccnc1Oc1ccc(C(F)(F)F)nc1 [I-16, 3-(2-ethylphenyl)-2-{[6-(trifluoromethyl)pyridin-3-yl]oxy}pyridine]	≤ 0.1	≤ 0.1
CCOc1ccccc1-c1cccnc1Oc1ccc(C(F)(F)F)nc1 [I-17, 3-(2-ethoxyphenyl)-2-{[6-(trifluoromethyl)pyridin-3-yl]oxy}pyridine]	0.2 to 0.78 (≈ 0.555 to 2.16 µM)	0.2 to 0.78 (≈ 0.555 to 2.16 µM)
FC(F)(F)Oc1ccccc1-c1cccnc1Oc1ccc(C(F)(F)F)nc1 [I-21, 3-(2-trifluoromethoxyphenyl)-2-{[6-(trifluoromethyl)pyridin-3-yl]oxy}pyridine]	0.2 to 0.78 (≈ 0.5 to 1.95 µM)	0.2 to 0.78 (≈ 0.5 to 1.95 µM)
COc1ccc(Cl)cc1-c1cccnc1Oc1ccc(C(F)(F)F)nc1 [I-23, 3-(5-chloro-2-methoxyphenyl)-2-{[6-(trifluoromethyl)pyridin-3-yl]oxy}pyridine]	≤ 0.1	≤ 0.1
COc1ncccc1-c1cccnc1Oc1ccc(C(F)(F)F)nc1 [I-26, 2-methoxy-2′-{[6-(trifluoromethyl)pyridin-3-yl]oxy}-3,3′-bipyridine]	≤ 0.1	≤ 0.1
COc1ncc(C)cc1-c1cccnc1Oc1ccc(C(F)(F)F)nc1 [I-30, 2-methoxy-5-methyl-2′-{[6-(trifluoromethyl)pyridin-3-yl]oxy}-3,3′-bipyridine]	≤ 0.1	≤ 0.1
COc1ncc(Cl)cc1-c1cccnc1Oc1ccc(C(F)(F)F)nc1 [I-31, 5-chloro-2-methoxy-2′-{[6-(trifluoromethyl)pyridin-3-yl]oxy}-3,3′-bipyridine]	≤ 0.1	≤ 0.1
FC(F)(F)c1ccc(Oc2ncccc2-c2cccc3cnccc23)cn1 [I-33, 5-(2-{[6-(trifluoromethyl)pyridin-3-yl]oxy}pyridin-3-yl)isoquinoline]	1.56 to 6.25 (≈ 4.25 to 17 µM)	1.56 to 6.25 (≈ 4.25 to 17 µM)
FC(F)(F)c1ccc(Oc2ncccc2-c2cccc3c2OCC3)cn1 [I-35, 3-(2,3-dihydrobenzofuran-7-yl)-2-{[6-(trifluoromethyl)pyridin-3-yl]oxy}pyridine]	≤ 0.1	≤ 0.1
FC(F)(F)c1ccc(Oc2ncccc2-c2cccc3ncccc23)cn1 [I-36, 5-(2-{[6-(trifluoromethyl)pyridin-3-yl]oxy}pyridin-3-yl)quinoline]	≤ 0.1	0.2 to 0.78 (≈ 0.544 to 2.12 µM)

Now from value to compound:

MIC [1] [µg/mL]	MIC [2] [µg/mL]	Compound
≤ 0.1	≤ 0.1	COc1cccc(-c2cccnc2Oc2ccc(C(F)(F)F)nc2)c1 [I-2, 3-(3-methoxyphenyl)-2-{[6-(trifluoromethyl)pyridin-3-yl]oxy}pyridine]
≤ 0.1	≤ 0.1	Fc1ccccc1-c1cccnc1Oc1ccc(C(F)(F)F)nc1 [I-3, 3-(2-fluorophenyl)-2-{[6-(trifluoromethyl)pyridin-3-yl]oxy}pyridine]
≤ 0.1	≤ 0.1	FC(F)(F)c1ccc(Oc2ncccc2-c2ccccc2Cl)cn1 [I-4, 3-(2-chlorophenyl)-2-{[6-(trifluoromethyl)pyridin-3-yl]oxy}pyridine]
0.2 to 0.78 (≈ 0.506 to 1.97 µM)	≤ 0.1	FC(F)(F)c1ccc(Oc2ncccc2-c2ccccc2Br)cn1 [I-5, 3-(2-bromophenyl)-2-{[6-(trifluoromethyl)pyridin-3-yl]oxy}pyridine]
≤ 0.1	≤ 0.1	Fc1ccc(F)c(-c2cccnc2Oc2ccc(C(F)(F)F)nc2)c1 [I-7, 3-(2,5-difluorophenyl)-2-{[6-(trifluoromethyl)pyridin-3-yl]oxy}pyridine]
≤ 0.1	≤ 0.1	COc1cccc(F)c1-c1cccnc1Oc1ccc(C(F)(F)F)nc1 [I-10, 3-(2-fluoro-6-methoxyphenyl)-2-{[6-(trifluoromethyl)pyridin-3-yl]oxy}pyridine]
≤ 0.1	≤ 0.1	COc1ccc(F)cc1-c1cccnc1Oc1ccc(C(F)(F)F)nc1 [I-11, 3-(5-fluoro-2-methoxyphenyl)-2-{[6-(trifluoromethyl)pyridin-3-yl]oxy}pyridine]
≤ 0.1	≤ 0.1	COc1c(F)cccc1-c1cccnc1Oc1ccc(C(F)(F)F)nc1 [I-13, 3-(3-fluoro-2-methoxyphenyl)-2-{[6-(trifluoromethyl)pyridin-3-yl]oxy}pyridine]
≤ 0.1	≤ 0.1	CSc1ccccc1-c1cccnc1Oc1ccc(C(F)(F)F)nc1 [I-14]
1.56 to 6.25 (≈ 4.35 to 17.4 µM)	1.56 to 6.25 (≈ 4.35 to 17.4 µM)	CC(=O)c1ccccc1-c1cccnc1Oc1ccc(C(F)(F)F)nc1 [I-19, 1-[2-(2-{[6-(trifluoromethyl)pyridin-3-yl]oxy}pyridin-3-yl)phenyl]ethanone]
1.56 to 6.25 (≈ 4.17 to 16.7 µM)	0.2 to 0.78 (≈ 0.534 to 2.08 µM)	COC(=O)c1ccccc1-c1cccnc1Oc1ccc(C(F)(F)F)nc1 [I-20, methyl 2-(2-{[6-(trifluoromethyl)pyridin-3-yl]oxy}pyridin-3-yl)benzoate]
1.56 to 6.25 (≈ 4.71 to 18.9 µM)	1.56 to 6.25 (≈ 4.71 to 18.9 µM)	Cc1ncccc1-c1cccnc1Oc1ccc(C(F)(F)F)nc1 [I-24, 2-methyl-2′-{[6-(trifluoromethyl)pyridin-3-yl]oxy}-3,3′-bipyridine]
0.2 to 0.78 (≈ 0.604 to 2.35 µM)	0.2 to 0.78 (≈ 0.604 to 2.35 µM)	Cc1ccncc1-c1cccnc1Oc1ccc(C(F)(F)F)nc1 [I-25]
0.2 to 0.78 (≈ 0.576 to 2.25 µM)	0.2 to 0.78 (≈ 0.576 to 2.25 µM)	COc1ccncc1-c1cccnc1Oc1ccc(C(F)(F)F)nc1 [I-28, 4′-methoxy-2-{[6-(trifluoromethyl)pyridin-3-yl]oxy}-3,3′-bipyridine]
≤ 0.1	≤ 0.1	COc1nc(C)ccc1-c1cccnc1Oc1ccc(C(F)(F)F)nc1 [I-29, 2-methoxy-6-methyl-2′-{[6-(trifluoromethyl)pyridin-3-yl]oxy}-3,3′-bipyridine]
0.2 to 0.78 (≈ 0.548 to 2.14 µM)	≤ 0.1	COc1ncc(F)cc1-c1cccnc1Oc1ccc(C(F)(F)F)nc1 [I-32, 5-fluoro-2-methoxy-2′-{[6-(trifluoromethyl)pyridin-3-yl]oxy}-3,3′-bipyridine]
≤ 0.1	≤ 0.1	FC(F)(F)c1ccc(Oc2ncccc2-c2cccc3cccnc23)cn1 [I-34, 8-(2-{[6-(trifluoromethyl)pyridin-3-yl]oxy}pyridin-3-yl)quinoline]
